Data taken from article PMC2937023, “Molecular Decoy to the Y-Box Binding Protein-1 Suppresses the Growth of Breast and Prostate Cancer Cells whilst Sparing Normal Cell Viability” (PLoS ONE, 2010).
Ends that are not written are not given here.

Key:
[1] = tested on: YB-1 binding to the EGFR promoter; details: previous work; cited from earlier work
Protocol: After 72 h, the CPP reduced HER-2 and EGFR protein levels in AU565 cells (Figure 3A). […] Further, in SUM149 cells, EGFR protein and mRNA levels were decreased (Figure 3C-D).

SUM149 cells = assay: Monolayer growth assay, SUM149; type: cell-based, human; details: SUM149, 72 h, 0–50 µM scrambled peptide, MTS
Protocol: (§3) For monolayer assays, cells were plated at 5000 cells per well in a 96 well plate. The following day cells were treated with diluent, 0–50 µM of scrambled peptide, or 0–50 µM CPP. The BT474, BT474-m1, HR5 and HR6 cells were also tested in combination with trastuzumab (BC Cancer Agency pharmacy, Vancouver, BC) at 20 µg/mL. […] Growth was shown as a percentage of diluent control and changes in growth were considered significant at P<0.01.

184htert cells = assay: Monolayer growth assay, normal immortalized mammary epithelial cells; type: cell-based, human; details: 72 h, MTS proliferation assay, 0–50 µM
Protocol: For monolayer assays, cells were plated at 5000 cells per well in a 96 well plate. The following day cells were treated with diluent, 0–50 µM of scrambled peptide, or 0–50 µM CPP. […] Growth was shown as a percentage of diluent control and changes in growth were considered significant at P<0.01.

[2] = tested on: EpCAM^+ primary normal human breast epithelial cells; assay: Normal mammary epithelial cells assay, colony-forming cell (CFC) assay; type: cell-based; details: cells from two patients, 6 or 25 µM for 48 hours, colonies counted 7 days post-seeding
Protocol: EpCAM^+ primary normal human breast epithelial cells from two patients were obtained, prepared, and isolated as previously described, [36]. In all subsequent experiments, the primary epithelial cells were grown in Epicult-B media (StemCell Technologies, Vancouver, BC) supplemented with 5% fetal calf serum. For the colony-forming cell (CFC) assay, EpCAM^+ cells from each patient were first seeded at 7000 cells/well into a 96 well plate and treated the following day with either diluent, scrambled peptide (6 or 25 µM), or CPP (6 or 25 µM) in triplicate wells for 48 hours. Following this peptide incubation, cells were harvested with trypsin, a single cell suspension was generated, and cells were seeded into the CFC assay as previously described, [37]. Colonies were counted 7 days post-seeding.

[3] = tested on: YB-1 binding to the EGFR promoter; assay: Electrophoretic mobility shift assay (gel shift), SUM149 nuclear extracts; type: biochemical, human; details: SUM149 nuclear protein 5 µg pre-incubated 20 min with 25 µM peptide, EGFR2a oligonucleotides
Protocol: The gel shift assay was performed using EGFR2a oligonucleotides as previously described. Briefly, SUM149 cells were harvested and cytoplasmic/nuclear fractions were obtained using the NE-PER kit followed by EMSA using the Lightshift Chemiluminescent EMSA kit (both kits from Pierce Biotechnology, Rockford, IL). Nuclear extracts were confirmed to contain RSK and YB-1 by immunoblotting. Nuclear protein (5 µg) was pre-incubated for 20 min with unlabeled oligonucleotide plus acetic acid control, scrambled peptide (25 µM), or CPP (25 µM or 50 µM) prior to the addition of biotin-labeled oligonucleotide. Chicken anti-YB-1 (1 µg) was used as positive control. Reactions were run on a non-denaturing polyacrylamide gel, transferred to a nylon membrane, cross-linked at 120 mJ/cm^2 using a Stratalinker (Stratagene, La Jolla, CA) and visualized with chemiluminescence (Pierce Biotechnology).

[4] = tested on: EpCAM^+ primary normal human breast epithelial cells; assay: Normal mammary epithelial cells assay, MTS growth; type: cell-based; details: cells from reduction mammoplasties of two patients, 6 or 25 µM, 72 h
EGFR [5] = assay: Real-time quantitative RT-PCR of EGFR transcript in AU565 cells; type: cell-based, human; details: 50 µM CPP, 24 h, qRT-PCR, 18S housekeeping
Protocol: (§1) RNA was isolated from log growing AU565 and SUM149 cells treated with 50 µM scrambled CPP or 50 µM CPP for 24 h using the RNeasy Mini kit from Qiagen (Mississauga, ON). The RNA was reverse transcribed and amplified using HER-2 (for AU565 cells) or EGFR (for SUM149 and AU565 cells) specific primers and probes (Applied Biosystems, Foster City, CA). 18S mRNA was quantified as a housekeeping gene (Applied Biosystems).

P-YB-1^S102 [6] = assay: Immunoblotting of P-YB-1^S102 in AU565 cells; type: cell-based, human; details: 12.5–50 µM CPP, 72 h, western blot
Protocol: (§2) Cell lines used herein were evaluated for YB-1, the activating kinases RSK and AKT, and the downstream targets EGFR and HER-2. […] Proteins were extracted using ELB plus protease and phosphatase inhibitors and western blotting was performed as previously described. The following antibodies were used to detect proteins by immunoblotting (unless otherwise indicated, all antibodies were from Cell Signaling Technology, Danvers, MA): P-YB-1^S102 (1/500), YB-1 (1/2000, Abcam, Cambridge, MA), EGFR (1/5000, Stressgen, San Diego, CA), P-p90RSK^S380 (1/500), RSK1/RSK2/RSK3 (1/1000), HER-2 (1/1000, Abcam), AKT (1/1000), creb (1/1000), pan-actin (1/1000), vinculin (1/1000). Blots were quantified using ImageJ software.

HER-2 [7] = assay: Real-time quantitative RT-PCR of HER-2 transcript in AU565 cells; type: cell-based, human; details: 50 µM CPP, 24 h, qRT-PCR, 18S housekeeping
Protocol: as §1

EGFR [8] = assay: Immunoblotting of EGFR protein in AU565 cells; type: cell-based, human; details: 72 h, western blot
Protocol: as §2

HR5 cells = assay: Monolayer growth assay, HR5 (trastuzumab resistant), with or without trastuzumab; type: cell-based, human; details: 72 h, MTS
Protocol: as §3

EGFR [9] = assay: Real-time quantitative RT-PCR of EGFR transcript in SUM149 cells; type: cell-based, human; details: 50 µM CPP, 24 h, qRT-PCR
Protocol: as §1

P-YB-1^S102 [10] = assay: Immunoblotting of P-YB-1^S102 in SUM149 cells; type: cell-based, human
Protocol: as §2

HER-2 [11] = assay: Immunoblotting of HER-2 protein in AU565 cells; type: cell-based, human; details: 72 h, western blot
Protocol: as §2

BT474-m1 cells = assay: Monolayer growth assay, BT474-m1, with or without trastuzumab; type: cell-based, human; details: 72 h, MTS
Protocol: as §3

HR6 cells = assay: Monolayer growth assay, HR6 (trastuzumab resistant), with or without trastuzumab; type: cell-based, human; details: 72 h, MTS
Protocol: as §3

P-YB-1^S102 [12] = assay: Immunoblotting of P-YB-1^S102 in LNCap cells; type: cell-based, human; details: 12.5–50 µM CPP, 72 h, western blot
Protocol: as §2

EGFR [13] = assay: Immunoblotting of EGFR protein in SUM149 cells; type: cell-based, human; details: 72 h, western blot
Protocol: as §2

BT474 cells = assay: Monolayer growth assay, BT474, with or without trastuzumab; type: cell-based, human; details: 72 h, MTS
Protocol: as §3

**Q.** With `COc1cccc(-c2cc(=O)c3ccccc3o2)c1N` [PD098059] as the molecule, how does the “YB-1 binding to the EGFR promoter” value [1] read?
**A.** reverse YB-1 binding

**Q.** Which “YB-1 binding to the EGFR promoter” value [1] does the source give for `CC(=O)O[C@@H]1[C@@H](OC(C)=O)[C@@H](O)[C@H](Oc2c(-c3ccc(O)cc3)oc3cc(O)cc(O)c3c2=O)O[C@H]1C` [SL0101] here?
**A.** reverse YB-1 binding

**Q.** With RALKYGVRP [scrambled peptide] as the molecule, how does the effect on growth (SUM149 cells) read?
**A.** no effect

**Q.** And the “growth of normal human mammary epithelial cells” value (184htert cells)?
**A.** neither the scrambled control peptide nor the CPP inhibited growth

**Q.** What about the “growth of normal breast epithelial cells (CFC output)” value [2] of the same molecule?
**A.** neither the scrambled peptide nor the CPP had any growth effect

**Q.** What about the “YB-1 binding to the EGFR promoter (gel shift)” value [3] of the same molecule?
**A.** bound with high affinity

**Q.** And the “growth of normal breast epithelial cells (MTS)” value [4]?
**A.** neither the scrambled peptide nor the CPP had any growth effect

**Q.** Which “reduction of EGFR transcript level” value (EGFR [5]) does the source give for RQIKIWFQNRRMKWKKPRKYLRSVG-OH [CPP] here?
**A.** ~50%

**Q.** And the “phosphorylation of YB-1^S102” value (P-YB-1^S102 [6])?
**A.** decreased phosphorylation

**Q.** What about the “reduction of HER-2 transcript level” value (HER-2 [7]) of the same molecule?
**A.** ~50%

**Q.** What about the EGFR protein level (EGFR [8]) of the same molecule?
**A.** reduced

**Q.** What about the sensitivity to trastuzumab (HR5 cells; HR5, CPP with trastuzumab 20 µg/ml) of the same molecule?
**A.** overcome drug insensitivity

**Q.** And the “growth, CPP” value (HR5 cells; HR5 trastuzumab resistant cells)?
**A.** significantly suppress growth

**Q.** What about the “EGFR mRNA level” value (EGFR [9]) of the same molecule?
**A.** decreased

**Q.** And the “phosphorylation of YB-1^S102” value (P-YB-1^S102 [10]; 12.5–50 µM CPP, 72 h, western blot)?
**A.** decreased phosphorylation

**Q.** What about the “decrease of P-YB-1^S102” value (P-YB-1^S102 [10]; 1 h, western blot quantified using ImageJ, relative P-YB-1:YB-1) of the same molecule?
**A.** 32%

**Q.** And the HER-2 protein level (HER-2 [11])?
**A.** reduced

**Q.** And the sensitivity to trastuzumab (BT474-m1 cells; BT474-m1, CPP 12.5 or 50 µM with trastuzumab 20 µg/ml)?
**A.** increased the sensitivity

**Q.** What about the “growth, CPP alone” value (BT474-m1 cells; BT474-m1, CPP 12.5 or 50 µM) of the same molecule?
**A.** suppressed the growth

**Q.** And the sensitivity to trastuzumab (HR6 cells; HR6, CPP with trastuzumab 20 µg/ml)?
**A.** overcome drug insensitivity

**Q.** And the “growth, CPP” value (HR6 cells; HR6 trastuzumab resistant cells)?
**A.** significantly suppress growth

**Q.** What about the “phosphorylation of YB-1^S102” value (P-YB-1^S102 [12]) of the same molecule?
**A.** decreased phosphorylation

**Q.** And the “YB-1 binding to the EGFR promoter (gel shift)” value [3]?
**A.** blocked binding

**Q.** And the EGFR protein level (EGFR [13])?
**A.** decreased

**Q.** What about the sensitivity to trastuzumab (BT474 cells; BT474, CPP 12.5 or 50 µM with trastuzumab 20 µg/ml) of the same molecule?
**A.** increased the sensitivity

**Q.** And the “growth, CPP alone” value (BT474 cells; BT474, CPP 12.5 or 50 µM)?
**A.** suppressed the growth
